From ChEMBL document CHEMBL1144381, “Synthesis and antimycobacterial activity of ferrocenyl ethambutol analogues and ferrocenyl diamines” (2005)

Tested on: Mycobacterium tuberculosis
Experiment: In vitro minimum inhibitory concentration measured against Mycobacterium tuberculosis H37Rv strain
Assay type: functional

| Compound | MIC [µg/mL] |
| --- | --- |
| (1S)-2-({[4-({[(5R)-5-hydroxycyclopenta-1,3-dien-1-yl]methyl}amino)butyl]amino}methyl)cyclopenta-2,4-dien-1-ol bis(cyclopenta-1,3-diene) diiron | > 64 |
| c1ccc(CNCCNCc2ccccc2)cc1 | > 64 |
| (cyclopenta-1,3-dien-1-ylmethyl)({4-[(cyclopenta-1,3-dien-1-ylmethyl)amino]butyl})amine bis(cyclopenta-1,3-diene) diiron | 32 |
| (cyclopenta-1,3-dien-1-ylmethyl)(hexyl)amine (cyclopenta-1,3-dien-1-ylmethyl)(methyl)amine bis(cyclopenta-1,3-diene) diiron | 32 |
| (cyclopenta-1,3-dien-1-ylmethyl)({2-[(cyclopenta-1,3-dien-1-ylmethyl)amino]ethyl})amine bis(cyclopenta-1,3-diene) diiron | 8 |
| (cyclopenta-1,3-dien-1-ylmethyl)({3-[(cyclopenta-1,3-dien-1-ylmethyl)amino]propyl})amine bis(cyclopenta-1,3-diene) diiron | 8 |
| (1S)-2-({[6-({[(5R)-5-hydroxycyclopenta-1,3-dien-1-yl]methyl}amino)hexyl]amino}methyl)cyclopenta-2,4-dien-1-ol bis(cyclopenta-1,3-diene) diiron | > 64 |
